According to US20240101548A1, “HYDROXAMATE COMPOUND, PREPARATION METHOD THEREFOR AND APPLICATION THEREOF” (SHENZHEN CHIPSCREEN BIOSCIENCES CO., LTD., priority 2020, published 2024):

Experiments:
[1] = test system: IL-2-induced JAK1/JAK3 signal pathway; assay: IL-2-induced proliferation of KHYG-1 cells (JAK1/JAK3 signal); assay type: cell-based, human; conditions: Homo sapiens; KHYG-1 cell proliferation, IL-2 10 ng/mL, 72 hours; read-out: Inhibition activity IC50 on IL-2-induced JAK1/JAK3 signal pathway
How it was run: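 Controls were wells lacking both compound and cytokine (0%) and compound-free IL-2 wells (100%). C50 was calculated from inhibition rates across doses.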

[2] = test system: EPO-induced JAK2 signal pathway; assay: EPO-induced proliferation of UT-7 cells (JAK2 signal); assay type: cell-based, human; conditions: Homo sapiens, UT7; UT-7 cell proliferation, EPO 10 ng/mL, 72 hours; read-out: Inhibition activity IC50 on EPO-induced JAK2 signal pathway
How it was run: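 […] was derived from inhibition rates across doses, scaled between wells lacking compound and cytokine (0) and EPO without compound (100), using alamarBlue fluorescence at Ex530/Em590. Compound (final 0-10000 nM) and 10 ng/mL EPO were given to UT-7 cells at 15000 per well for 72 h at 37° C.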

SMILES | IC50 [1] [µM] | IC50 [2] [µM]
CCONC(=O)c1cnc(Nc2cc(C)nc(C)n2)cc1Nc1ccc(C(F)(F)F)cc1N(C)S(C)(=O)=O [Example 202, 6-((2,6-dimethylpyrimidin-4-yl)amino)-N-ethoxy-4-((2-(N-methylmethanesulfonamido)-4-(trifluoromethyl)phenyl)amino)nicotinamide] | > 10 | > 10
CCONC(=O)c1cnc(Nc2cc(C)nc(C)n2)cc1Nc1cccc(-c2ncccn2)c1OC [Example 212] | > 10 | > 10
CCONC(=O)c1cnc(Nc2cc(C)nc(C)n2)cc1Nc1cc(F)cc(-c2ncccn2)c1OC [Example 215, 6-((2,6-dimethylpyrimidin-4-yl)amino)-N-ethoxy-4-((5-fluoro-2-methoxy-3-(pyrimidin-2-yl)phenyl)amino)nicotinamide] | > 10 | > 10
CCONC(=O)c1cnc(NC(=O)C2CC2)cc1Nc1cccc(-c2ncc(Cl)cn2)c1OC [Example 219, 4-((3-(5-chloropyrimidin-2-yl)-2-methoxyphenyl)amino)-6-(cyclopropylcarboxamido)-N-ethoxy nicotinamide] | > 10 | > 10
CCONC(=O)c1cnc(Nc2cc(C)nc(C)n2)cc1Nc1cccc(-c2ncc(C)cn2)c1OC [Example 238, 6-((2,6-dimethylpyrimidin-4-yl)amino)-N-ethoxy-4-((2-methoxy-3-(5-methylpyrimidin-2-yl)phenyl)amino)nicotinamide] | > 10 | > 10
